In patent US20260308535A1, “ANTI-CANCER TREATMENTS AND METHODS OF USE THEREOF” (Memorial Sloan-Kettering Cancer Center, priority 2023, published 2026):

T1: IDH2 R140Q (Homo sapiens, UniProt P48735, R140Q)
T1 sequence (P48735 40-452 R140Q): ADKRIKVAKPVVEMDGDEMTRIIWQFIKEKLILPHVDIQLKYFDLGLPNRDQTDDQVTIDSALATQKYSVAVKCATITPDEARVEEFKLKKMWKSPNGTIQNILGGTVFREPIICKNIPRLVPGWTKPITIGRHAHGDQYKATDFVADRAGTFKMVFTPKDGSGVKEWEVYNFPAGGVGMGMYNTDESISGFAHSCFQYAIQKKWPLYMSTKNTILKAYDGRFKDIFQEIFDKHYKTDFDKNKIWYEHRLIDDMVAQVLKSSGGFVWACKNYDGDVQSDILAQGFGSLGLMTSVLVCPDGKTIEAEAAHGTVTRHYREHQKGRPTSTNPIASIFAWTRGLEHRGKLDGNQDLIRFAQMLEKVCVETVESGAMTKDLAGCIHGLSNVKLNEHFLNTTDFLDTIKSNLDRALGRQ


Key:
[1] = molecular target: T1, IDH2 R140Q; details: 10 μM compound; NADH 0.5 mM; αKG 10 mM; enzyme 7.5 μg/ml; 37° C.
Protocol: Briefly, enzyme reactions were set up in 384-well plate format with purified enzyme (7.5 μg/ml), NADH (0.5 mM), αKG (10 mM; added last to start reaction), and HEPES buffer. Compounds were screened using a concentration of 10 μM in DMSO. No enzyme groups were used for each condition as negative controls. […] Reactions were incubated at 37° C., and absorbance at 340 nm was monitored using an EnVision plate reader at 30-minute intervals. Results were analyzed using KNIME. Briefly, concatenated spreadsheets containing absorbance metadata (well number, plate information, absorbance read outs etc.) were merged. For baseline correction, the “no enzyme with drug” values (N1: no enzyme negative control with drug) for each condition were subtracted from the “plus enzyme with drug” values (S: enzyme with drug) for each condition. Then the baseline corrected enzyme values (S−N1) were normalized to the “no enzyme control” values (N2: no enzyme control with DMSO) to calculate robust (median based) percent of “no enzyme control” (POC) and Z-scores. […] To confirm hits, enzyme assays were carried out in the same as screening but in a 96-well plate format with 10 μM of each hit, and purified enzyme (7.5 μg/ml), NADH (0.5 mM), and αKG (10 mM). Absorbance was read at 340 nm every 15 sec for 3 hr.

[2] = test system: IDH2 R172X; assay: Effect of EDBN on IDH2 R172X mutations; assay type: biochemical; details: FIG. 50
[3] = test system: Ba/F3 leukemia cells with IDH2 allelic configurations; assay type: cell-based, mouse
Protocol: Panel A Schematic depicting IDH2 dimers retrovirally transduced into Ba/F3 cells. ‘Pre’received IDH2 WT-mCherry plus IDH2 RQ-YFP; ‘Trans’ received IDH2 RQ-YFP plus IDH2 IM-GFP; ‘Cis’ received IDH2 WT-mCherry plus IDH2 RQ/IM-GFP. […] Panel C Competitive growth of ‘Pre’, ‘Trans’, and ‘Cis’ cells mixed at a 1:1:1 ratio and cultured with vehicle (DMSO) or the mutant IDH2 inhibitor enasidenib (100 nM). Changes in the percentage of ‘Pre’, ‘Trans’, and ‘Cis’ cells were assessed weekly by flow cytometry (n=3). […] Results throughout figure are representative of >3 independent experiments. Data are mean±SEM unless otherwise specified. **P<0.01, ***P<0.001, ****P<0.0001.
Cells harboring these distinct allelic configurations were marked with different combinations of fluorescent proteins (FIG. 1 panel B).

[4] = test system: IDH2 R140Q; details: cited from earlier work
[5] = molecular target: T1, IDH2 R140Q; assay: NADH-dependent reduction of αKG to 2HG, RQ; details: role: cofactor; RQ homodimers; NADH 0.25 mM; αKG 5.0 mM
[6] = substrate: O=C(O)CCC(=O)C(=O)O; assay: NADPH-dependent 2HG production, Michaelis-Menten kinetics, active-site RQ homodimers; assay type: biochemical, human; details: other: role: substrate, cofactor NADPH 0.33 mM, enzyme 7.5 μg/ml, 37.0 °C

Molecule	Z-Score, Screen #1 [1]	Z-Score, Screen #2 [1]	also measured
COC1=C(OC)C(=O)C(CCCCCCCCCCO)=C(C)C1=O [Idebenone]	11.33	8.499	–
CCc1ccc2[nH]c3nc(C)cc(C)c3c(=O)c2c1 [EDBN, 7-ethyl-2,4-dimethylbenzo[b][1,8]naphthyridin-5(10H)-one]	–	–	activity on IDH2 R172X mutations [2]: also works on IDH2 R172X mutations
CC(C)(O)CNc1nc(Nc2ccnc(C(F)(F)F)c2)nc(-c2cccc(C(F)(F)F)n2)n1 [enasidenib]	–	–	competitive growth of 'Cis' cells [3]: selective growth disadvantage; competitive growth of 'Trans' cells [3]: selectively grew out in the presence of enasidenib; effect of allosteric binding on active site conformation [4]: can stabilize inhibitory open conformation
NC(=O)C1=CN([C@@H]2O[C@H](COP(=O)(O)OP(=O)(O)OC[C@H]3O[C@@H](n4cnc5c(N)ncnc54)[C@H](O)[C@@H]3O)[C@@H](O)[C@H]2O)C=CC1 [NADH, nicotinamide adenine dinucleotide]	–	–	use of NADH to reduce αKG [5]: no ability to use NADH to reduce αKG
CC(=O)O[C@@H]1C[C@H]2C(C)(C)C(=O)C=C[C@]2(C)[C@H]2CC[C@]3(C)C(=CC(=O)O[C@H]3c3ccoc3)[C@@]21C [Deoxygedunin]	7.959	7.554	–
CC(=O)O[C@@H]1C[C@H]2C(C)(C)C(=O)CC[C@]2(C)[C@H]2CC[C@@]3(C)[C@H](c4ccoc4)OC(=O)[C@H]4O[C@]43[C@@]21C [Dihydrogedunin]	9.578	4.452	–
O=c1c(O)c(-c2ccc(O)c(O)c2)oc2c(O)c(O)cc(O)c12 [Gossypetin]	9.982	13.35	–
IDH2 R140Q (RQ) homodimers (Homo sapiens; R140Q) (protein) ADKRIKVAKPVVEMDGDEMTRIIWQFIKEKLILPHVDIQLKYFDLGLPNRDQTDDQVTIDSALATQKYSVAVKCATITPDEARVEEFKLKKMWKSPNGTIQNILGGTVFREPIICKNIPRLVPGWTKPITIGRHAHGDQYKATDFVADRAGTFKMVFTPKDGSGVKEWEVYNFPAGGVGMGMYNTDESISGFAHSCFQYAIQKKWPLYMSTKNTILKAYDGRFKDIFQEIFDKHYKTDFDKNKIWYEHRLIDDMVAQVLKSSGGFVWACKNYDGDVQSDILAQGFGSLGLMTSVLVCPDGKTIEAEAAHGTVTRHYREHQKGRPTSTNPIASIFAWTRGLEHRGKLDGNQDLIRFAQMLEKVCVETVESGAMTKDLAGCIHGLSNVKLNEHFLNTTDFLDTIKSNLDRALGRQ	–	–	Km [6]: 1740 µM; Vmax [6]: 6.95 µM/min; kcat/Km [6]: 2.14e+06 M⁻¹ s⁻¹
